The source of these data is patent publication US20070135383A1, “Phospholipase inhibitors, including multi-valent phospholipase inhibitors, and use thereof, including as lumen-localized phospholipase inhibitors” (priority 2005, published 2007).

Each structure is given as a SMILES string.

In one data set the target is mouse PLA2 IB enzyme (Mus musculus, UniProt Q9Z0Y2). As to conditions: versus the mouse PLA2 IB enzyme; cited from earlier work.
The next data set has as its target human PLA2 IB enzyme (Homo sapiens, UniProt P04054). As to conditions: versus the human PLA2 IB enzyme; cited from earlier work.
The nature of data set [1]: Pharmacokinetic study of ILY-4001, IV and oral (Example 1B-3). In kind it is in vivo, mice. As to conditions: 30 mg/kg oral. As for the experimental part:
This example evaluated the bioavailability of ILY-4001 [2-(3-(2-amino-2-oxoacetyl)-1-(biphenyl-2-ylmethyl)-2-methyl-1H-indol-4-yloxy)acetic acid], alternatively referred to herein as methyl indoxam. Specifically, a pharmokinetic study was conducted to determine the fraction of unchanged ILY-4001 in systemic circulation following administration.
Bioavailability was calculated as a ratio of AUC-oral/AUC-intravenous (IV). To determine this ratio, a first set of subject animals were given a measured intravenous (IV) dose of ILY-4001, followed by a determination of ILY-4001 levels in the blood at various time points after administration (e.g., 5 minutes through 24 hours). Another second set of animals was similarly dosed using oral administration, with blood levels of ILY-4001 determined at various time points after administration (e.g., 30 minutes through 24 hours). The level of ILY-4001 in systemic circulation were determined by generally accepted methods (for example as described in Evans, G., A Handbook of Bioanalysis and Drug Metabolism. Boca Raton, CRC Press (2004)). Specifically, […]/mass spectrometry/mass spectrometry (LC/MS/MS) analytical methods were used to quantitate plasma concentrations of ILY-4001 after oral and intravenous administration. Pharmacokinetic parameters that were measured include Cmax, AUC, tmax, t1/2, and F (bioavailability). […]

The target of data set [2] is T1, porcine group 1B PLA2 (pps PLA2) (Sus scrofa, UniProt P00592).
T1 construct: purchased
The data set can be described thus: Fluorimetric PPyrPM assay for group 1B PLA2 inhibition (Example 12). Format: biochemical. The note with it: porcine pancreas secreted PLA2; read-out: ILYPSA IC50 pps PLA2. In a few lines:
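Porcine group 1B PLA2 hydrolysis of 4.2 uM PPyrPM vesicle solution (pre-mixing concentration) in 50 mM Tris-HCl pH 8.0, 50 mM KCl, 1 mM CaCl2 with BSA; inhibitors in 8-point threefold series from 15 uM. After 3 min at 37 °C, fluorescence read at ex 342/em 395 nm; duplicate IC50 by four-parameter fit.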

Chain of mouse PLA2 IB enzyme (Q9Z0Y2 23-146): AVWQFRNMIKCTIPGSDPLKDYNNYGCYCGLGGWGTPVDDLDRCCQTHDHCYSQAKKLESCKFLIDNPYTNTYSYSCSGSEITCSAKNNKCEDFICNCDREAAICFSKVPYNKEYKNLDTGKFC
Chain of human PLA2 IB enzyme (P04054 23-148): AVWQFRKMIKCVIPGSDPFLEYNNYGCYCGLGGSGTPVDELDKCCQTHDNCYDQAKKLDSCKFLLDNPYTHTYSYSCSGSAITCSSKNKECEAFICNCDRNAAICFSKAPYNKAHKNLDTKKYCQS
T1 sequence (P00592 23-146): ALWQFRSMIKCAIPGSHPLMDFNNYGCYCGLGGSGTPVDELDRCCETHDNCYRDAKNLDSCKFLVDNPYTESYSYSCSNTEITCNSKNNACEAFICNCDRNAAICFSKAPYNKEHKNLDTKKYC

Take `Cc1c(C(=O)C(N)=O)c2c(OCC(=O)O)cccc2n1Cc1ccccc1-c1ccccc1` [ILY-4001, 2-(3-(2-amino-2-oxoacetyl)-1-(biphenyl-2-ylmethyl)-2-methyl-1H-indol-4-yloxy)acetic acid]: the IC50 was 150 nM on mouse PLA2 IB enzyme and about 200 nM at human PLA2 IB enzyme. Moreover, the “level of non-absorption from the GI tract into systemic circulation” value in data set [1] is about 72%.

For `Cc1c(C(=O)C(N)=O)c2c(OCC(=O)O)cccc2n1CCCCCCCCSCCCCCCCCSCCCCCCCCn1c(C)c(C(=O)C(N)=O)c2c(OCC(=O)O)cccc21` [ILY-V-24, 2,2′-(1,1′-(8,8′-(Octane-1,8-diylbis(sulfanediyl))bis(octane-8,1-diyl))bis(3-(2-amino-2-oxoacetyl)-2-methyl-1H-indole-4,1-diyl))bis(oxy)diacetic acid], the IC50 in data set [2] amounted to 800 nM.

As usually defined, the IC50 is the concentration that gives 50% inhibition.
